Assays:
Rat [1] = assay: concentration in blood after dosing; conditions: dosed: Naphthalene, 1 mg/kg, iv, Female, F344
Rat [2] = assay: concentration in blood after dosing; conditions: dosed: Naphthalene, 1 mg/kg, iv, Female, F344; remark: listed apart in the source
Rat [3] = assay: concentration in blood after dosing; conditions: dosed: Naphthalene, 3 mg/kg, iv, Male, F344
Rat [4] = assay: concentration in blood after dosing; conditions: dosed: Naphthalene, 3 mg/kg, iv, Male, F344; remark: listed apart in the source
Rat [5] = assay: concentration in blood after dosing; conditions: dosed: Naphthalene, 3 mg/kg, iv, Female, F344
Rat [6] = assay: concentration in blood after dosing; conditions: dosed: Naphthalene, 10 mg/kg, iv, Male, F344
Rat [7] = assay: concentration in blood after dosing; conditions: dosed: Naphthalene, 10 mg/kg, iv, Male, F344; remark: listed apart in the source
Rat [8] = assay: concentration in blood after dosing; conditions: dosed: Naphthalene, iv, F344
Rat [9] = assay: concentration in blood after dosing; conditions: dosed: Naphthalene, 1 mg/kg, iv, Male, F344
Rat [10] = assay: concentration in blood after dosing; conditions: dosed: Naphthalene, 1 mg/kg, iv, Male, F344; remark: listed apart in the source
Rat [11] = conditions: dosed: dibromoacetic acid, 100 mg/kg, oral, Male, F344
Rat [12] = conditions: dosed: dibromoacetic acid, 40 mg/kg, oral, Male, F344
Rat [13] = conditions: dosed: dibromoacetic acid, 100 mg/kg, oral, Male, F344; remark: listed apart in the source
Rat [14] = conditions: dosed: dibromoacetic acid, 100 mg/kg, oral, Male, F344; remark: listed apart in the source
Rat [15] = conditions: dosed: dibromoacetic acid, 40 mg/kg, oral, Male, F344; remark: listed apart in the source
Rat [16] = conditions: dosed: dibromoacetic acid, 40 mg/kg, oral, Male, F344; remark: listed apart in the source
rat [17] = assay: concentration in blood after dosing; conditions: dosed: hexane, 60000 ppm, dermal, duration: 4 hr, male, F344
rat [18] = assay: concentration in blood after dosing; conditions: dosed: hexane, 60000 ppm, dermal, duration: 4 hr, male, F344; remark: listed apart in the source
rat [19] = assay: concentration in blood after dosing; conditions: dosed: hexane, 60000 ppm, dermal, duration: 4 hr, male, F344; remark: listed apart in the source
rat [20] = assay: concentration in blood after dosing; conditions: dosed: hexane, 60000 ppm, dermal, duration: 4 hr, male, F344; remark: listed apart in the source
rat [21] = assay: concentration in blood after dosing; conditions: dosed: hexane, 60000 ppm, dermal, duration: 4 hr, male, F344; remark: listed apart in the source

c1ccc2ccccc2c1 [Naphthalene]
concentration in blood [ng/mL]
Conditions | 1 h | 2 h | 2 min | 4 h | 5 min | 6 h | 8 h | 10 min | 20 min | 40 min
Rat [1] | – | – | 21.4 | – | 51.6 | 23.6 | – | – | 20.5 | –
Rat [2] | 21.2 | – | 1740 | – | 548 | – | – | 204 | 29.3 | 34.3
Rat [3] | 133 | 52.1 | 6890 | 19.3 | 4770 | – | – | 2440 | 736 | 255
Rat [4] | 169 | 82.8 | – | – | 2000 | – | – | 3690 | 1240 | 306
Rat [5] | 103 | 47 | 2870 | 26.7 | 1900 | 27.7 | 24.2 | 942 | 468 | 151
Rat [6] | 487 | 172 | – | 90.2 | 8740 | 47.3 | 33.3 | 4000 | 2610 | 661
Rat [7] | 407 | 172 | – | 76.7 | 8050 | 38.2 | – | 4930 | 2640 | 839
Rat [9] | 30.5 | – | 1300 | – | 625 | – | – | 340 | 82.5 | 46.6
Rat [10] | 36.2 | – | 1390 | – | 701 | – | – | 312 | 127 | 54.8

concentration in blood [ng/mL], Rat [8]
Conditions | 1 mg/kg | 3 mg/kg | 10 mg/kg
1 h, Female | – | 80 | –
1 h, Male | 34.8 | 172 | 446
2 h, Female | – | 35.1 | –
2 h, Male | – | 233 | 214
2 min, Female | 1330 | 2780 | –
2 min, Male | 3260 | 260 | –
4 h, Male | – | 87.1 | 90
5 min, Female | 770 | 1480 | –
5 min, Male | 677 | 152 | 11200
6 h, Male | – | 90.9 | 58.5
8 h, Male | – | 20.6 | 38.1
10 min, Female | 407 | 1380 | –
10 min, Male | 315 | 215 | 6220
12 h, Male | – | – | 21.5
20 min, Female | 120 | 375 | –
20 min, Male | 107 | 185 | 2850
40 min, Female | 43 | 125 | –
40 min, Male | – | 173 | 860

O=C(O)C(Br)Br [dibromoacetic acid]
amount in urine after dosing [µg]
Conditions | Rat [11] | Rat [12] | Rat [13] | Rat [14] | Rat [15] | Rat [16]
2 h | – | – | – | 17.7 | – | 0.735
4 h | 55.8 | – | 61.7 | 54.6 | 8.7 | –
8 h | – | 11.7 | – | 44.1 | 3.52 | –
24 h | 81 | 1.52 | 37.7 | 19.1 | 3.52 | 4.47
48 h | 5.03 | – | 2.24 | 4.62 | – | –

CCCCCC [hexane]
concentration in blood [ng/mL]
Conditions | rat [17] | rat [18] | rat [19] | rat [20] | rat [21]
0.5 h | 1500 | – | 1240 | 606 | –
1 h | 31.2 | 406 | 804 | 903 | 708
2 h | – | 812 | 1100 | 500 | 112
3 h | 304 | 796 | 1300 | – | 414
4 h | 804 | 200 | 999 | – | –

— EPA's CvTdb concentration-time database
